Holding throughout (assay): relative viability (nuclei count vs DMSO), 5 days (fraction); higher = more cells survive
Compound in assay [1]: CN[C@@H]1C[C@H]2O[C@@](C)([C@@H]1OC)n1c3ccccc3c3c4c(c5c6ccccc6n2c5c31)C(=O)NC4 [Staurosporine] + CC1(C)CCC(c2ccc(Cl)cc2)=C(CN2CCN(c3ccc(C(=O)NS(=O)(=O)c4ccc(N[C@H](CCN5CCOCC5)CSc5ccccc5)c(S(=O)(=O)C(F)(F)F)c4)cc3)CC2)C1 [Navitoclax] (partner 0.5 µM)
An outline of the steps:
(§1)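 Relative viability divides the nuclei count in treated wells by that in vehicle wells. Lung cancer cell lines were seeded in 1536-well plates, dosed by pin tool the next day, and fixed and stained after 5 days in one step with final 0.05% Triton X-100, 1% formaldehyde and 1 ug/ml Hoechst. Dosing was a single drug or a fixed anchor-drug dose plus five library-drug doses (not always all listed) in √10 steps, and values are medians of duplicate plates imaged at 4×.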

Compound in the assay “5-Fluorouracil + AZD7762”: O=c1[nH]cc(F)c(=O)[nH]1 [5-Fluorouracil] + NC(=O)Nc1cc(-c2cccc(F)c2)sc1C(=O)N[C@H]1CCCNC1 [AZD7762] (partner 0.2 µM)
In a few lines: as §1

Compound in the assay “Sulindac + Dasatinib”: CC1=C(CC(=O)O)c2cc(F)ccc2/C1=C\c1ccc([S+](C)[O-])cc1 [Sulindac] + Cc1nc(Nc2ncc(C(=O)Nc3c(C)cccc3Cl)s2)cc(N2CCN(CCO)CC2)n1 [Dasatinib] (partner 0.075 µM)
An outline of the steps:
as §1

Compound in assay [2]: CN[C@@H]1C[C@H]2O[C@@](C)([C@@H]1OC)n1c3ccccc3c3c4c(c5c6ccccc6n2c5c31)C(=O)NC4 [Staurosporine] + CC(=O)c1c(C)c2cnc(Nc3ccc(N4CCNCC4)cn3)nc2n(C2CCCC2)c1=O [Palbociclib] (partner 0.5 µM)
In a few lines: as §1

Our source for the relative viability values is the supplement of paper PMC10307832.

As to 201T, the relative viability in assay [1] (first compound 0.005 µM) was found to be 1.24; in assay [1] (first compound 0.01581 µM), 1.18; in assay [1] (first compound 0.05 µM), 1.06; in assay [1] (first compound 0.1581 µM) it was 0.983; in assay [1] (first compound 0.5 µM), 0.761; with 5-Fluorouracil + AZD7762 (first compound 0.02 µM), 0.51. Besides, the relative viability with 5-Fluorouracil + AZD7762 (first compound 0.2 µM) came out at 0.264; in the assay with 5-Fluorouracil + AZD7762 (first compound 0.6325 µM), 0.197; with 5-Fluorouracil + AZD7762 (first compound 2 µM), 0.217; in the assay with Sulindac + Dasatinib (first compound 0.08 µM), 0.662; with Sulindac + Dasatinib (first compound 0.253 µM), 0.585; with Sulindac + Dasatinib (first compound 0.8 µM), 0.526. Moreover, the relative viability came out at 0.559 in the assay with Sulindac + Dasatinib (first compound 2.53 µM); 0.587 with Sulindac + Dasatinib (first compound 8 µM); 0.362 in assay [2] (first compound 0.005 µM); 0.329 in assay [2] (first compound 0.05 µM); 0.274 in assay [2] (first compound 0.1581 µM); 0.285 in assay [2] (first compound 0.5 µM).

Consider A549, for which the relative viability came out at 0.616 in assay [1] (first compound 0.005 µM); 0.385 in assay [1] (first compound 0.01581 µM); 0.123 in assay [1] (first compound 0.05 µM); 0.0294 in assay [1] (first compound 0.1581 µM); 0.0297 in assay [1] (first compound 0.5 µM).

As for A-427, the relative viability amounted to 0.943 in assay [1] (first compound 0.005 µM); 0.639 in assay [1] (first compound 0.01581 µM); 0.254 in assay [1] (first compound 0.05 µM); 0.204 in assay [1] (first compound 0.1581 µM); 0.676 with 5-Fluorouracil + AZD7762 (first compound 0.02 µM); 0.805 in the assay with 5-Fluorouracil + AZD7762 (first compound 0.2 µM). Besides, the relative viability with 5-Fluorouracil + AZD7762 (first compound 0.6325 µM) amounted to 0.308; with 5-Fluorouracil + AZD7762 (first compound 2 µM) it was 0.253; with Sulindac + Dasatinib (first compound 0.08 µM) it was 0.92; with Sulindac + Dasatinib (first compound 0.253 µM) it was 0.76; with Sulindac + Dasatinib (first compound 0.8 µM) it was 0.547; with Sulindac + Dasatinib (first compound 2.53 µM) it was 0.714. For the same cell line, the relative viability with Sulindac + Dasatinib (first compound 8 µM) is 0.755; in assay [2] (first compound 0.005 µM), 0.509; in assay [2] (first compound 0.01581 µM) it was 0.425; in assay [2] (first compound 0.05 µM), 0.346; in assay [2] (first compound 0.1581 µM), 0.246; in assay [2] (first compound 0.5 µM), 0.193.

In the case of ABC-1, the relative viability was found to be 0.754 with 5-Fluorouracil + AZD7762 (first compound 0.02 µM); 0.933 with 5-Fluorouracil + AZD7762 (first compound 0.2 µM); 0.722 with 5-Fluorouracil + AZD7762 (first compound 0.6325 µM); 0.634 with 5-Fluorouracil + AZD7762 (first compound 2 µM); 0.506 with Sulindac + Dasatinib (first compound 0.08 µM); 0.53 in the assay with Sulindac + Dasatinib (first compound 0.253 µM). The relative viability was found to be 0.434 with Sulindac + Dasatinib (first compound 0.8 µM); 0.673 with Sulindac + Dasatinib (first compound 8 µM); 0.224 in assay [2] (first compound 0.01581 µM); 0.226 in assay [2] (first compound 0.05 µM); 0.258 in assay [2] (first compound 0.1581 µM); 0.193 in assay [2] (first compound 0.5 µM).

With BEN, the relative viability is 0.0665 in assay [1] (first compound 0.005 µM); 0.0904 in assay [1] (first compound 0.01581 µM); 0.0865 in assay [1] (first compound 0.05 µM); 0.0456 in assay [1] (first compound 0.1581 µM); 0.042 in assay [1] (first compound 0.5 µM); 0.791 with 5-Fluorouracil + AZD7762 (first compound 0.02 µM). The relative viability with 5-Fluorouracil + AZD7762 (first compound 0.2 µM) came out at 0.804; with 5-Fluorouracil + AZD7762 (first compound 0.6325 µM), 0.606; in the assay with 5-Fluorouracil + AZD7762 (first compound 2 µM) it was 0.679; with Sulindac + Dasatinib (first compound 0.08 µM), 0.311; in the assay with Sulindac + Dasatinib (first compound 0.253 µM) it was 0.317; with Sulindac + Dasatinib (first compound 0.8 µM), 0.314. The relative viability with Sulindac + Dasatinib (first compound 2.53 µM) was 0.288; with Sulindac + Dasatinib (first compound 8 µM) it was 0.384; in assay [2] (first compound 0.005 µM) it was 0.553; in assay [2] (first compound 0.01581 µM), 0.478; in assay [2] (first compound 0.05 µM) it was 0.397; in assay [2] (first compound 0.1581 µM) it was 0.446. For the same cell line, in assay [2] (first compound 0.5 µM), the relative viability was 0.295.

Regarding CAL-12T, the relative viability turned out to be 0.285 in assay [1] (first compound 0.005 µM); 0.314 in assay [1] (first compound 0.01581 µM); 0.152 in assay [1] (first compound 0.05 µM); 0.13 in assay [1] (first compound 0.1581 µM); 0.0943 in assay [1] (first compound 0.5 µM); 0.685 with 5-Fluorouracil + AZD7762 (first compound 0.02 µM). The relative viability with 5-Fluorouracil + AZD7762 (first compound 0.2 µM) came to 0.588; in the assay with 5-Fluorouracil + AZD7762 (first compound 0.6325 µM), 0.421; with 5-Fluorouracil + AZD7762 (first compound 2 µM) it was 0.421; with Sulindac + Dasatinib (first compound 0.08 µM), 0.317; with Sulindac + Dasatinib (first compound 0.253 µM), 0.391; with Sulindac + Dasatinib (first compound 0.8 µM), 0.324. Besides, the relative viability in the assay with Sulindac + Dasatinib (first compound 2.53 µM) came to 0.371; with Sulindac + Dasatinib (first compound 8 µM) it was 0.341; in assay [2] (first compound 0.005 µM) it was 0.196; in assay [2] (first compound 0.01581 µM), 0.138; in assay [2] (first compound 0.05 µM), 0.107; in assay [2] (first compound 0.1581 µM) it was 0.142. For the same cell line, the relative viability in assay [2] (first compound 0.5 µM) came out at 0.122.

Consider COR-L23, for which the relative viability in assay [1] (first compound 0.005 µM) turned out to be 0.511; in assay [1] (first compound 0.01581 µM), 0.3; in assay [1] (first compound 0.05 µM), 0.17; in assay [1] (first compound 0.1581 µM) it was 0.0578; in assay [1] (first compound 0.5 µM), 0.0582; with Sulindac + Dasatinib (first compound 0.08 µM), 0.478. Further, the relative viability in the assay with Sulindac + Dasatinib (first compound 0.253 µM) came out at 0.419; in the assay with Sulindac + Dasatinib (first compound 0.8 µM), 0.438; with Sulindac + Dasatinib (first compound 2.53 µM), 0.489; with Sulindac + Dasatinib (first compound 8 µM), 0.744; in assay [2] (first compound 0.005 µM), 0.218; in assay [2] (first compound 0.01581 µM), 0.109. The figures for the relative viability in assay [2] (first compound 0.05 µM), in assay [2] (first compound 0.1581 µM) and in assay [2] (first compound 0.5 µM) were 0.117, 0.103 and 0.0791, respectively.

Regarding COR-L 105, the relative viability in assay [1] (first compound 0.005 µM) stood at 0.573; in assay [1] (first compound 0.01581 µM) it was 0.275; in assay [1] (first compound 0.05 µM), 0.258; in assay [1] (first compound 0.1581 µM), 0.272; in assay [1] (first compound 0.5 µM) it was 0.242; in the assay with Sulindac + Dasatinib (first compound 0.08 µM) it was 0.307. Moreover, the relative viability was found to be 0.42 with Sulindac + Dasatinib (first compound 0.253 µM); 0.305 with Sulindac + Dasatinib (first compound 0.8 µM); 0.291 with Sulindac + Dasatinib (first compound 2.53 µM); 0.393 with Sulindac + Dasatinib (first compound 8 µM); 0.365 in assay [2] (first compound 0.005 µM); 0.334 in assay [2] (first compound 0.01581 µM). The relative viability in assay [2] (first compound 0.05 µM) amounted to 0.313; in assay [2] (first compound 0.1581 µM), 0.282; in assay [2] (first compound 0.5 µM), 0.246.

In the case of Calu-6, the relative viability in assay [1] (first compound 0.005 µM) is 0.656; in assay [1] (first compound 0.01581 µM) it was 0.321; in assay [1] (first compound 0.05 µM) it was 0.233; in assay [1] (first compound 0.1581 µM), 0.0847; in assay [1] (first compound 0.5 µM), 0.0708.

As to ChaGo-K-1, the relative viability came to 0.926 in assay [1] (first compound 0.005 µM); 0.79 in assay [1] (first compound 0.05 µM); 0.29 in assay [1] (first compound 0.1581 µM); 0.27 in assay [1] (first compound 0.5 µM); 0.883 with 5-Fluorouracil + AZD7762 (first compound 0.02 µM); 0.917 with 5-Fluorouracil + AZD7762 (first compound 0.2 µM). In addition, the relative viability with 5-Fluorouracil + AZD7762 (first compound 0.6325 µM) came to 0.609; with 5-Fluorouracil + AZD7762 (first compound 2 µM), 0.383; in the assay with Sulindac + Dasatinib (first compound 0.08 µM), 0.597; in the assay with Sulindac + Dasatinib (first compound 0.253 µM), 0.618; with Sulindac + Dasatinib (first compound 0.8 µM), 0.64; with Sulindac + Dasatinib (first compound 2.53 µM), 0.587. Besides, the relative viability in the assay with Sulindac + Dasatinib (first compound 8 µM) came out at 0.651; in assay [2] (first compound 0.005 µM), 0.886; in assay [2] (first compound 0.05 µM), 0.811; in assay [2] (first compound 0.1581 µM), 0.696; in assay [2] (first compound 0.5 µM) it was 0.701.

For EBC-1, the relative viability in assay [1] (first compound 0.005 µM) turned out to be 0.252; in assay [1] (first compound 0.01581 µM) it was 0.129; in assay [1] (first compound 0.05 µM) it was 0.118; in assay [1] (first compound 0.1581 µM), 0.11; in assay [1] (first compound 0.5 µM) it was 0.094.
